Reference: patent publication US9701689B2, “Substituted pyridines and pyridazines as CCR10 receptor inhibitors” (KYOWA HAKKO KIRIN CO., LTD., priority 2012, dated 2017)

Experiments:
human CCR10 = target: T1, human CCR10 (Homo sapiens, UniProt P46092); assay: CCR10 antagonistic effect: calcium assay of human CCR10 (CTACK-induced increase of intracellular calcium in hCCR10G16 cells); assay type: cell-based; conditions: at a concentration of not more than 1000 nmol/L; human CCR10-expressing hCCR10G16 cells, 300 nmol/L CTACK added; read-out: inhibition of increase in the calcium ion concentration
T1 construct: expressed in transfected cells; host or cells: KJMGER8 cells (Namalwa cell-derived line), beta-estradiol-induced; hCCR10G16 cells
T1 sequence (P46092 1-362): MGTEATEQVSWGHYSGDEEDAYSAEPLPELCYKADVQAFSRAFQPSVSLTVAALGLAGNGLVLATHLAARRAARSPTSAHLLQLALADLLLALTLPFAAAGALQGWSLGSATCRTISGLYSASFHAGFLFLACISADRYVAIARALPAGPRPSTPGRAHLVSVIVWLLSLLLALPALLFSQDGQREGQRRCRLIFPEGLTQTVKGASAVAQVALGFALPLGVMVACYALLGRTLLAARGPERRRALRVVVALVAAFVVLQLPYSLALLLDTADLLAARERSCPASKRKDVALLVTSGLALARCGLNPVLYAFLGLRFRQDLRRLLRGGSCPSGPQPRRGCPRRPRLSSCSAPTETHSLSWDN
In short: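 Inhibition of CTACK-evoked calcium flux (max minus min Fluo-3 fluorescence over ~5 min, FDSS) was calculated against control in β-estradiol-induced human CCR10/Gα16 KJMGER8 cells, after 30 min compound preincubation at 37 °C; CTACK added from a 300 nmol/L solution.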

[1] = test system: Dinitrofluorobenzene-induced Auricle Edema Reaction in Mouse; assay: Suppressive action on dinitrofluorobenzene-induced auricle edema reaction in mouse; assay type: in vivo; conditions: BALB/c mice; for suppressive action on auricle edema response (in words): topical application in acetone, summary of Table 28; for inhibition in vivo at 1 %: test compound concentration 1% (w/v) in acetone
Procedure: [Experimental Example 2] Suppressive Action on Dinitrofluorobenzene-induced Auricle Edema Reaction in Mouse
BALB/c mice (female, supplied by CHARLES RIVER LABORATORIES JAPAN, INC.) were purchased at the age of 5 weeks. After quarantine and acclimation, mice showing smooth body weight increase and free of abnormality in appearance were used and the test was started at the age of 7 weeks. The mice were housed in a breeding room at room temperature 19-25° C., humidity 30-70%, 12 hr lighting per day (7 a.m.-7 p.m.) with 3 mice in each plastic gauge, and bred on with free ingestion of a commercially available solid feed and water.
Two days before the test, the abdomen of the BALB/c mice was shaved, and the mice were immunized by applying 100 μL of a solution {concentration 0.5% [weight (w)/volume (v) %]} of dinitrofluorobenzene (manufactured by Nacalai Tesque) in acetone (manufactured by Wako Pure Chemical Industries, Ltd.) to the shaved part. The reaction was induced by applying dinitrofluorobenzene-acetone solution [concentration 0.2% (w/v %)] to the front and the back of auricle (10 μL to each, total 20 μL) on day 5 after the immunization. A test compound dissolved in acetone at concentration of 0.1% or 1% (w/v %) was administered by applying same to the front and the back of auricle (10 μL to each, total 20 μL) 1 hr before and 3 hr after induction of the reaction. After application, the applied part was air-dried with a dryer.
The group applying administered with the test compound was taken as a test compound administration group, and the group applying administered with acetone as a solvent instead of the test compound was taken as a solvent administration group. Also, the group free of immunization and reaction induction but applying administered with acetone instead of the test compound was taken as a normal group. The thickness of auricle was measured using a dial thickness gauge (G-1A manufactured by OZAKI MFG. CO., LTD.) immediately before and 24 hr after induction of the reaction, and the difference thereof was taken as auricle edema. The suppression rate (%) of auricle edema was calculated according to the following formula.

[2] = Mus musculus, topical, applied to auricle 1 hr before and 3 hr after induction, measured 24 hr after induction, read-out: auricle edema suppression rate (%)

Cc1cc(Cl)ccc1Nc1cc(S(=O)(=O)NC(=O)NC2CC2)ncc1C(=O)N1CCC(c2ccc(F)cc2)CC1 [Compound 21, 4-(4-chloro-2-methylphenylamino)-N-(cyclopropylcarbamoyl)-5-[4-(4-fluorophenyl)piperidine-1-carbonyl]pyridine-2-sulfonamide]
inhibition at up to 1 µM (human CCR10): ≥ 50%
suppressive action on auricle edema response (in words) [1]: showed a suppressive action on auricle edema response
inhibition in vivo at 0.1 % ([1]; Mus musculus, topical, test compound concentration 0.1% (w/v) in acetone, applied to auricle 1 hr before and 3 hr after induction, measured 24 hr after induction, read-out: auricle edema suppression rate (%)): 26%

CCNC(=O)NS(=O)(=O)c1cc(Nc2ccc(F)cc2C)c(C(=O)N2CCC(c3ccc(F)cc3)CC2)cn1 [Compound 22, N-(ethylcarbamoyl)-4-(4-fluoro-2-methylphenylamino)-5-[4-(4-fluorophenyl)piperidine-1-carbonyl]pyridine-2-sulfonamide]
inhibition at up to 1 µM (human CCR10): ≥ 50%
suppressive action on auricle edema response (in words) [1]: showed a suppressive action on auricle edema response
inhibition in vivo at 1 % [1, 2]: 47%

Cc1cc(F)ccc1Nc1c(C(=O)N2CCC(c3ccc(F)cc3)CC2)cnc(S(N)(=O)=O)c1Cl [Compound 25, 3-chloro-4-(4-fluoro-2-methylphenylamino)-5-[4-(4-fluorophenyl)piperidine-1-carbonyl]pyridine-2-sulfonamide]
inhibition at up to 1 µM (human CCR10): ≥ 50%
suppressive action on auricle edema response (in words) [1]: showed a suppressive action on auricle edema response
inhibition in vivo at 1 % [1, 2]: 47%

NS(=O)(=O)c1ncc(C(=O)N2CCC(c3ccc(F)cc3)CC2)c(Nc2cccc(Cl)c2)c1Cl [Compound 176, 3-chloro-4-(3-chlorophenylamino)-5-[4-(4-fluorophenyl)piperidine-1-carbonyl]pyridine-2-sulfonamide]
inhibition at up to 1 µM (human CCR10): ≥ 50%
suppressive action on auricle edema response (in words) [1]: showed a suppressive action on auricle edema response
inhibition in vivo at 1 % [1, 2]: 42%

Cc1ccc(Cl)cc1Nc1c(C(=O)N2CCC(c3ccc(F)cc3)CC2)cnc(S(=O)(=O)Nc2ccon2)c1C [Compound 232, 4-(5-chloro-2-methylphenylamino)-5-[4-(4-fluorophenyl)piperidine-1-carbonyl]-N-(isoxazol-3-yl)-3-methylpyridine-2-sulfonamide]
inhibition at up to 1 µM (human CCR10): ≥ 50%
suppressive action on auricle edema response (in words) [1]: showed a suppressive action on auricle edema response
inhibition in vivo at 1 % [1, 2]: 39%

Cc1c(S(=O)(=O)Nc2ccon2)ncc(C(=O)N2CCC(c3ccc(F)cc3)CC2)c1Nc1cccc(F)c1 [Compound 233, 5-[4-(4-fluorophenyl)piperidine-1-carbonyl]-4-(3-fluorophenylamino)-N-(isoxazol-3-yl)-3-methylpyridine-2-sulfonamide]
inhibition at up to 1 µM (human CCR10): ≥ 50%
suppressive action on auricle edema response (in words) [1]: showed a suppressive action on auricle edema response
inhibition in vivo at 1 % [1, 2]: 24%

Cc1cc(NS(=O)(=O)c2ncc(C(=O)N3CCC(c4ccc(F)cc4)CC3)c(Nc3ccccc3C)c2C)sn1 [Compound 241, 5-[4-(4-fluorophenyl)piperidine-1-carbonyl]-3-methyl-N-(3-methylisothiazol-5-yl)-4-(o-tolylamino)pyridine-2-sulfonamide]
inhibition at up to 1 µM (human CCR10): ≥ 50%
suppressive action on auricle edema response (in words) [1]: showed a suppressive action on auricle edema response
inhibition in vivo at 1 % [1, 2]: 27%

Cc1c(S(=O)(=O)Nc2ccon2)ncc(C(=O)N2CCC(c3ccc(F)cc3)CC2)c1Nc1ccc(Cl)cc1 [Compound 259, 4-(4-chlorophenylamino)-5-[4-(4-fluorophenyl)piperidine-1-carbonyl]-N-(isoxazol-3-yl)-3-methylpyridine-2-sulfonamide]
inhibition at up to 1 µM (human CCR10): ≥ 50%
suppressive action on auricle edema response (in words) [1]: showed a suppressive action on auricle edema response
inhibition in vivo at 1 % [1, 2]: 38%

NS(=O)(=O)c1ncc(C(=O)N2CCC(c3ccc(F)cc3)CC2)c(Nc2ccc(C(F)(F)F)cc2)c1Cl [Compound 291, 3-chloro-5-[4-(4-fluorophenyl)piperidine-1-carbonyl]-4-[4-(trifluoromethyl)phenylamino]pyridine-2-sulfonamide]
inhibition at up to 1 µM (human CCR10): ≥ 50%
suppressive action on auricle edema response (in words) [1]: showed a suppressive action on auricle edema response
inhibition in vivo at 1 % [1, 2]: 35%
